Test results taken from BigSolDB 2.1.

C=CC(=O)NCO
Details	solubility (mole fraction)
in acetonitrile, 279.15 K	0.0244
in acetonitrile, 282.05 K	0.0276
in acetonitrile, 288.15 K	0.0341
in acetonitrile, 292.75 K	0.041
in acetonitrile, 298.15 K	0.0499
in acetonitrile, 304.05 K	0.0614
in acetonitrile, 308.55 K	0.0716
in chloroform, 279.65 K	0.0011
in chloroform, 282.35 K	0.0013
in chloroform, 286.05 K	0.0015
in chloroform, 289.85 K	0.0019
in chloroform, 294.45 K	0.0023
in chloroform, 299.15 K	0.0029
in chloroform, 303.25 K	0.0035
in dichloromethane, 277.55 K	0.0018
in dichloromethane, 280.35 K	0.0019
in dichloromethane, 282.95 K	0.0021
in dichloromethane, 285.55 K	0.0023
in dichloromethane, 288.15 K	0.0025
in dichloromethane, 291.75 K	0.0028
in ethyl acetate, 278.55 K	0.0109
in ethyl acetate, 281.85 K	0.0127
in ethyl acetate, 285.05 K	0.0146
in ethyl acetate, 289.15 K	0.0176
in ethyl acetate, 296.95 K	0.0248
in ethyl acetate, 300.95 K	0.0294
in ethyl acetate, 305.05 K	0.0351
in furan, 278.55 K	0.0445
in furan, 282.05 K	0.0515
in furan, 284.45 K	0.0574
in furan, 288.25 K	0.0683
in furan, 291.45 K	0.0789
in furan, 294.85 K	0.0919
in furan, 297.25 K	0.102
in n-butyl acetate, 278.05 K	0.0037
in n-butyl acetate, 281.15 K	0.0045
in n-butyl acetate, 284.35 K	0.0055
in n-butyl acetate, 288.95 K	0.0073
in n-butyl acetate, 292.05 K	0.0087
in n-butyl acetate, 295.35 K	0.0105
in n-butyl acetate, 301.45 K	0.0148
in pyridine, 278.55 K	0.232
in pyridine, 281.35 K	0.245
in pyridine, 286.95 K	0.272
in pyridine, 292.25 K	0.303
in pyridine, 297.95 K	0.339
in pyridine, 302.15 K	0.367
in pyridine, 306.25 K	0.401
in toluene, 279.75 K	0.0004
in toluene, 284.35 K	0.0006
in toluene, 287.95 K	0.0008
in toluene, 291.55 K	0.0009
in toluene, 294.95 K	0.0011
in toluene, 298.55 K	0.0014
in toluene, 305.35 K	0.002
